# Where “and” joins values, the source holds several entries; their conditions need not be identical. Identical values can stand only once. Like-named read-outs stand apart in the source and are kept apart here.
# Key:
# human GIP receptor = target: T1, human GIP receptor (Homo sapiens, UniProt P48546); test: biochemical; assay type: binding
# T1 construct: expressed in transfected cells; host or cells: HEK293 (HEK-GIPR), membranes
# T1 sequence (P48546 22-466): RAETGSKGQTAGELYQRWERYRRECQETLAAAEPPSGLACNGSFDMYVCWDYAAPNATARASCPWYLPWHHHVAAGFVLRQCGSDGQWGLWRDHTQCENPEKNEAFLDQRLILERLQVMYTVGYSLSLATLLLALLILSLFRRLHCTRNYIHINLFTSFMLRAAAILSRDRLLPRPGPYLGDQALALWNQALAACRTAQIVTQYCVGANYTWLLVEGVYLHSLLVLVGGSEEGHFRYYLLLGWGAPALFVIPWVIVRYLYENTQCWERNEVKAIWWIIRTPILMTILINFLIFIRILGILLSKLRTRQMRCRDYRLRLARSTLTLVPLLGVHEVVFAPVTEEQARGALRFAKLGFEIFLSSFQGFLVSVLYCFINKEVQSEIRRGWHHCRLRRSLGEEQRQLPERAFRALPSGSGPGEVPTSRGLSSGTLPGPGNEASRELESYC
# [1] = assay type: in vivo, NIH/Swiss mice
# Description: (§1) In FIG. 3A, bars represent mean±sd, n=6-10. […] Gavage (1.5 g/kg) was given at t=0, Sample was taken at t=30 min. […] In FIG. 3B, points represent mean±sem, n=8-15.
# Peptide was injected IP at t=−5 minutes into 4-hour fasted NIH/Swiss female mice. […] In FIG. 17 points represent mean+/−sem. […] Samples were taken at t=60, t=120 and t=180.
# [2] = assay type: in vivo, NIH/Swiss mice; conditions: for Basal Gluc. Low. 80 nmol/Kg / Basal Glucose Lowering at Peptide Conc. of 80 nmol/kg: AUC240; for basal glucose lowering (% maximal decrease): mouse, in vivo
# Description: as §1
# Points represent mean±sem.
# [3] = IVGTT duration of action assay (single SC injection before glucose); assay type: in vivo, rat; conditions: for Duration In The Rat IVGTT Assay: compared with 0601GIP3794 (794), dosed at −120 min
# Description: To determine a duration of action using the IVGTT assay, the sample was injected SC as a single injection at one time point indicated (e.g., t=−240, −120, −60 or −30) prior to administration of glucose. IV glucose was given at t=0.
# [4] = Intravenous glucose tolerance test (IVGTT), i.v. infusion; assay type: in vivo, rat; conditions: for Standard IVGTT assay IV infusion (insulin AUC 0-30 min): IV infusion 100 pmol/min/kg; for Standard IVGTT assay IV infusion (insulin AUC 0-30 min) / IVGTT > = < Compared to 0601GIP3794: rat; for IVGTT > = < Compared to 0601GIP3794: in vivo
# Description: In the typical IVGTT assays the test sample was administered by IV infusion. The IV infusion of sample was initiated at t=−30 min and continued through t=90. IV glucose was given at t=0. To determine a duration of action using the IVGTT assay, the sample was injected SC as a single injection at one time point indicated (e.g., t=−240, −120, −60 or −30) prior to administration of glucose. IV glucose was given at t=0.
# As described, fed, isoflurane anesthetized HSD male rats were intubated and cannulated via femoral artery and vein and allowed to stabilize for 1 hour. […] At t=0, an i.v. bolus of 5.7 mmol/kg D-glucose was administered over 2 minutes. Samples for glucose measurement and insulin concentrations were taken at various time points before and after (0 to 90 minutes) glucose infusion.
# [5] = read-out: (% Inh 10 nm, GIP-LF Assay)
# [6] = read-out: GIP RBA (% Inh 10 nM)
Compound,inhibition at 0.01 µM (human GIP receptor; [5]) [%],OGTT/GL (%) ([1]; 30 nmol/kg),Basal Gluc. Low. 80 nmol/Kg [2],Duration In The Rat IVGTT Assay [3],Basal Glucose Lowering at Peptide Conc. of 80 nmol/kg [2],IVGTT > = < Compared to 0601GIP3794 [4],also measured
CC[C@H](C)[C@H](NC(=O)[C@H](C)NC(=O)[C@H](CCCCN)NC(=O)[C@@H]1CCCN1C(=O)[C@H](CCCCN)NC(=O)[C@H](CCC(N)=O)NC(=O)[C@H](C)NC(=O)[C@H](CC(C)C)NC(=O)[C@H](CC(C)C)NC(=O)[C@H](Cc1c[nH]c2ccccc12)NC(=O)[C@H](CC(N)=O)NC(=O)[C@@H](NC(=O)[C@H](Cc1ccccc1)NC(=O)[C@H](CC(=O)O)NC(=O)[C@H](CCC(N)=O)NC(=O)[C@H](CCC(N)=O)NC(=O)[C@H](Cc1c[nH]cn1)NC(=O)[C@@H](NC(=O)[C@H](CCCCN)NC(=O)[C@H](CC(=O)O)NC(=O)[C@H](CCSC)NC(=O)[C@H](C)NC(=O)[C@@H](NC(=O)[C@H](CO)NC(=O)[C@H](Cc1ccc(O)cc1)NC(=O)[C@H](CC(=O)O)NC(=O)[C@H](CO)NC(=O)[C@@H](NC(=O)[C@H](Cc1ccccc1)NC(=O)[C@@H](NC(=O)CNC(=O)[C@H](CCC(=O)O)NC(=O)[C@@H](C)NC(=O)[C@@H](N)Cc1ccc(O)cc1)[C@@H](C)O)[C@@H](C)CC)[C@@H](C)CC)[C@@H](C)CC)C(C)C)C(=O)N[C@@H](CCCNC(=N)N)C(=O)N[C@@H](Cc1ccc(O)cc1)C(=O)N[C@@H](CO)C(N)=O [Compound 0601GIP4816],87.3,"−19%,","−9%,",<794@ −120 min,,,inhibition at 0.01 µM (human GIP receptor; [6]): 87.3%
CC[C@H](C)[C@H](NC(=O)[C@H](CO)NC(=O)[C@H](Cc1ccc(O)cc1)NC(=O)[C@H](CC(=O)O)NC(=O)[C@H](CO)NC(=O)[C@@H](NC(=O)[C@H](Cc1ccccc1)NC(=O)[C@@H](NC(=O)CNC(=O)[C@H](CCC(=O)O)NC(=O)[C@@H](C)NC(=O)[C@@H](N)Cc1ccc(O)cc1)[C@@H](C)O)[C@@H](C)CC)C(=O)N[C@@H](C)C(=O)N[C@@H](CCSC)C(=O)N[C@@H](CC(=O)O)C(=O)N[C@@H](CCCCN)C(=O)N[C@H](C(=O)N[C@@H](Cc1c[nH]cn1)C(=O)N[C@@H](CCC(N)=O)C(=O)N[C@@H](CCC(N)=O)C(=O)N[C@@H](CC(=O)O)C(=O)N[C@@H](Cc1ccccc1)C(=O)N[C@H](C(=O)N[C@@H](CC(N)=O)C(=O)N[C@@H](Cc1c[nH]c2ccccc12)C(=O)N[C@@H](CC(C)C)C(=O)N[C@@H](CC(C)C)C(=O)N[C@@H](C)C(=O)N[C@@H](CCC(N)=O)C(=O)N[C@@H](CCCCN)C(=O)N1CCC[C@H]1C(=O)N[C@@H](CCCCN)C(=O)N[C@@H](CO)C(=O)N[C@@H](C)C(=O)N[C@@H](CCCNC(=N)N)C(=O)N1CCC[C@H]1C(=O)N[C@@H](CO)C(N)=O)C(C)C)[C@@H](C)CC [Compound 0601GIP4821],93.5,"−28, %","−5%,",<794@ −120 min,,,inhibition at 0.01 µM (human GIP receptor; [6]): 93.5%
CC[C@H](C)[C@H](NC(=O)[C@H](CO)NC(=O)[C@H](Cc1ccc(O)cc1)NC(=O)[C@H](CC(=O)O)NC(=O)[C@H](CO)NC(=O)[C@@H](NC(=O)[C@H](Cc1ccccc1)NC(=O)[C@@H](NC(=O)CNC(=O)[C@H](CCC(=O)O)NC(=O)[C@@H](C)NC(=O)[C@@H](N)Cc1ccc(O)cc1)[C@@H](C)O)[C@@H](C)CC)C(=O)N[C@@H](C)C(=O)N[C@@H](CCSC)C(=O)N[C@@H](CC(=O)O)C(=O)N[C@@H](CCCCN)C(=O)N[C@H](C(=O)N[C@@H](Cc1c[nH]cn1)C(=O)N[C@@H](CCC(N)=O)C(=O)N[C@@H](CCC(N)=O)C(=O)N[C@@H](CC(=O)O)C(=O)N[C@@H](Cc1ccccc1)C(=O)N[C@H](C(=O)N[C@@H](CC(N)=O)C(=O)N[C@@H](Cc1c[nH]c2ccccc12)C(=O)N[C@@H](CC(C)C)C(=O)N[C@@H](CC(C)C)C(=O)N[C@@H](C)C(=O)N[C@@H](CCC(N)=O)C(=O)N[C@@H](CCCCN)C(=O)N1CCC[C@H]1C(=O)N[C@@H](CO)C(=O)N1CCC[C@H]1C(=O)N[C@@H](CCCCN)C(=O)N[C@@H](CCCCN)C(=O)N[C@H](C(=O)N[C@@H](CCCNC(=N)N)C(=O)N[C@@H](Cc1ccc(O)cc1)C(=O)N[C@@H](CO)C(N)=O)[C@@H](C)CC)C(C)C)[C@@H](C)CC [Compound 0601GIP4823],94.1,,"−23%,",<794@ −120 min,,,inhibition at 0.01 µM (human GIP receptor; [6]): 94.1%
CC[C@H](C)[C@H](NC(=O)[C@H](CO)NC(=O)[C@H](Cc1ccc(O)cc1)NC(=O)[C@H](CC(=O)O)NC(=O)[C@H](CO)NC(=O)[C@@H](NC(=O)[C@H](Cc1ccccc1)NC(=O)[C@@H](NC(=O)CNC(=O)[C@H](CCC(=O)O)NC(=O)[C@@H](C)NC(=O)[C@@H](N)Cc1ccc(O)cc1)[C@@H](C)O)[C@@H](C)CC)C(=O)N[C@@H](C)C(=O)N[C@@H](CCSC)C(=O)N[C@@H](CC(=O)O)C(=O)N[C@@H](CCCCN)C(=O)N[C@H](C(=O)N[C@@H](Cc1c[nH]cn1)C(=O)N[C@@H](CCC(N)=O)C(=O)N[C@@H](CCC(N)=O)C(=O)N[C@@H](CC(=O)O)C(=O)N[C@@H](Cc1ccccc1)C(=O)N[C@H](C(=O)N[C@@H](CC(N)=O)C(=O)N[C@@H](Cc1c[nH]c2ccccc12)C(=O)N[C@@H](CC(C)C)C(=O)N[C@@H](CC(C)C)C(=O)N[C@@H](C)C(=O)N[C@@H](CCC(N)=O)C(=O)N[C@@H](CCCCN)C(=O)N1CCC[C@H]1C(=O)N[C@@H](CCCCN)C(=O)N[C@@H](CCC(N)=O)C(=O)N[C@H](C(=O)N[C@@H](CCCNC(=N)N)C(=O)N[C@@H](Cc1ccc(O)cc1)C(=O)N[C@@H](CO)C(N)=O)[C@@H](C)CC)C(C)C)[C@@H](C)CC [Compound 0601GIP4854],93.5,"−14, %",,<794@ −120 min,,,
CC[C@H](C)[C@H](NC(=O)[C@H](CO)NC(=O)[C@H](Cc1ccc(O)cc1)NC(=O)[C@H](CC(=O)O)NC(=O)[C@H](CO)NC(=O)[C@@H](NC(=O)[C@H](Cc1ccccc1)NC(=O)[C@@H](NC(=O)CNC(=O)[C@H](CCC(=O)O)NC(=O)[C@@H](C)NC(=O)[C@@H](N)Cc1ccc(O)cc1)[C@@H](C)O)[C@@H](C)CC)C(=O)N[C@@H](C)C(=O)N[C@@H](CCSC)C(=O)N[C@@H](CC(=O)O)C(=O)N[C@@H](CCCCN)C(=O)N[C@H](C(=O)N[C@@H](Cc1c[nH]cn1)C(=O)N[C@@H](CCC(N)=O)C(=O)N[C@@H](CCC(N)=O)C(=O)N[C@@H](CC(=O)O)C(=O)N[C@@H](Cc1ccccc1)C(=O)N[C@H](C(=O)N[C@@H](CC(N)=O)C(=O)N[C@@H](Cc1c[nH]c2ccccc12)C(=O)N[C@@H](CC(C)C)C(=O)N[C@@H](CC(C)C)C(=O)N[C@@H](C)C(=O)N[C@@H](CCC(N)=O)C(=O)N[C@@H](CCCCN)C(=O)N1CCC[C@H]1C(=O)N[C@@H](CCCCN)C(=O)N[C@@H](CCCCN)C(=O)N[C@@H](C)C(=O)N[C@@H](CCCNC(=N)N)C(=O)N[C@@H](Cc1ccc(O)cc1)C(=O)N[C@@H](CO)C(N)=O)C(C)C)[C@@H](C)CC [Compound 0601GIP4856],83.7,"−29, %","−3%,",<794@ −120 min,,,
Human GIP,,,,,,,Standard IVGTT assay IV infusion (insulin AUC 0-30 min) [4]: 226; Duration of action in assay (insulin AUC 0-30 min) ([3]; SC inj T = −30 min): 57
"[dAla2, Leu14, Ala18, glu21] GIP-(1-30)-Exendin-4 (31-39) [Compound 0601GIP4285]",,"−17% and −17 30 nmol/kg, %","−2%,",,"−2%, AUC240",=,OGTT/GL (%) ([1]; 350 nmol/kg): −10 350 nmol/kg %
"[dAla2, Leu14, beta-Ala31, beta-Ala32] GIP-(1-32)-Exendin-4 (31-39) [Compound 0601GIP4179]",,"−24 30 nmol/kg, %",,,"−17%, AUC240",=,OGTT/GL (%) ([1]; 350 nmol/kg): −23 350 nmol/kg %
[dAla2]GIP-(1-30)-[Octylglycine 34] Exendin-4 (31-39) [Compound 0601GIP4252],,,,,"−7%, AUC240",=,Standard IVGTT assay IV infusion (insulin AUC 0-30 min) [4]: 218
dAla2-GIP(1-42) acid form [Compound 0601GIP4042],,,,,,,"basal glucose lowering (% maximal decrease) [2]: −11%; insulinotropic response to an intravenous glucose challenge (IVGTT assay) ([4]; 100 pmol/kg/min infusion, rats): significant enhancement of the insulinotropic response"
octylglycine-GIP(1-30)-Exendin-4-(31-39) [Compound 0601GIP4178],,,,,"−13%, AUC240",<,"OGTT/GL (%) ([1]; 350 nmol/kg): −20%; OGTT response ([1]; mouse, in vivo): −20%; basal glucose lowering (% maximal decrease) [2]: −20%; insulin levels prior to the glucose challenge ([4]; 100 pmol/kg/min infusion, rats): significant rise in insulin levels; insulinotropic response to an intravenous glucose challenge (IVGTT assay) ([4]; 100 pmol/kg/min infusion, rats): diminished insulinotropic response"

# Reference: US8497240B2 (priority 2006, dated 2013)
